Measured values taken from patent publication US11564912B2, “Methods for treating irritable bowel syndrome (IBS)” (Salix Pharmaceuticals, Inc., priority 2008, dated 2023).

Assays:
subjects with IBS = assay: Study 1 of rifaximin 550 mg TID for 14 days, analysis after 3 months; format: in vivo, human
Description: (§1) A measure of efficacy is based on subjects' answers to the Weekly Subject Global Assessment (SGA) questions over the study duration in relation to their IBS symptoms.

[1] = as previously disclosed by Applicants; cited from earlier work
[2] = tested on: patients with nonconstipation irritable bowel syndrome (non-C IBS); assay: Trial of rifaximin 550 mg TID for 14 days with 10-week follow-up (Example 5; Study 2 of Example 6); format: in vivo, human
[3] = tested on: patients with nonconstipation irritable bowel syndrome (non-C IBS); assay: as above; format: in vivo, human; remark: listed apart in the source
Description: A measure of efficacy is based on subjects' answers to the Weekly Subject Global Assessment (SGA) questions over the 4 week study duration in relation to their IBS symptoms. […] Another measure of efficacy is based on subjects' answers to the Weekly Subject Global Assessment (SGA) question over the 4 week study duration in relation to their IBS symptom of bloating. The SGA question is asked weekly as follows: “In the past 7 days, have you had adequate relief of your IBS symptom of bloating?” (Yes/No). […] Other measures of efficacy include the changes in dIBS symptoms from baseline to each week of the 4 weeks in the study (e.g., abdominal pain and discomfort, bloating, number of stools per day, stool consistency, urgency with loose or watery stools).
The primary efficacy endpoint of the study was the proportion of subjects who achieve adequate relief of IBS symptoms for at least 2 weeks during 10 the first 4 weeks of the 10-week follow-up phase.
Two measures of efficacy were assessed.
Subjects were questioned on the relief of overall IBS symptoms and bloating. […] The analyses defined success as a “yes” response to questions regarding adequate relief.
Assessment (SGA) questions over the 4 week study duration in relation to their IBS symptoms. […] Another measure of efficacy is based on subjects' answers to the Weekly Subject Global Assessment (SGA) question over the 4 week study duration in relation to their IBS symptom of bloating. The SGA question is asked weekly as follows: “In the past 7 days, have you had adequate relief of your IBS symptom of bloating'?” (Yes/No).
All subpopulations in the study responded to therapy. Baseline severity was determined during screening for Abdominal Pain/Discomfort and Bloating, and the number, type (normal, hard, loose) and urgency of bowel movements. Duration of effect was assessed in a ten week follow-up period.
as §1

[4] = Rifaximin exposure in subjects having IBS; format: in vivo, human
[5] = at least 2 out of 4 weeks adequate relief during weeks 3 through 6 (weekly question)
[6] = Age Group: <65, Rifaximin 550 mg TID (N = 281)
[7] = Age Group: >=65, Rifaximin 550 mg TID
[8] = Gender: Female, Rifaximin 550 mg TID (N = 226)
[9] = Gender: Male, Rifaximin 550 mg TID (N = 85)
[10] = IBS Subtype: Alternating-predominant, Rifaximin 550 mg TID
[11] = IBS Subtype: Diarrhoea-predominant, Rifaximin 550 mg TID
[12] = Population: ITT, Rifaximin 550 mg TID (N = 315)
[13] = Population: PP, Rifaximin 550 mg TID (N = 311)
[14] = Population: PP, Rifaximin 550 mg TID (N = 311), Weeks 3 through 6
[15] = Race: Non-White, Rifaximin 550 mg TID (N = 31)
[16] = Race: White, Rifaximin 550 mg TID (N = 280)
[17] = Rifaximin 550 mg TID (N = 315), weekly SGA, at least 2 of Weeks 3 through 6, LOCF
[18] = Study 2, at least 2 out of 4 weeks adequate relief during weeks 3 through 6 (weekly question)
[19] = Study 2, at least 2 weeks during PEP

(2S,16Z,18E,20S,21S,22R, 23R,24R,25S,26S,27S,28E)-5,6,21,23,25 Pentahydroxy-27-methoxy -2,4,11,16,20,22,24,26-octamethyl-2,7-(epoxypentadeca-(1,11,13)trienimino)benzofuro (4,5-e) pyrido(1,2,-a) benzimidazole-1,15(2H)-dione,25-acetate [Rifaximin]
Daily abdominal pain <2, responders (subjects with IBS; <2 for at least 50% of days in a week for at least 2 weeks during PEP): 40%
Global IBS symptoms, responders (subjects with IBS; [5]): 41%
IBS symptom of Bloating, responders (subjects with IBS; [5]): 40%
Abdominal Pain reduction of 2 point in mean, responders (subjects with IBS; at least 2 weeks during PEP): 26%
Abdominal Pain reduction of 2 point in median, responders (subjects with IBS; at least 2 weeks during PEP): 37%
Abdominal Pain reduction of 3 point in mean, responders (subjects with IBS; at least 2 weeks during PEP): 6% vs 7%
Abdominal Pain reduction of 3 point in median, responders (subjects with IBS; at least 2 weeks during PEP): 22%
Overall reduction of mean weekly abdominal pain by >=25%, responders (subjects with IBS; at least 2 weeks during PEP): 56%
Overall reduction of mean weekly abdominal pain by >=50%, responders (subjects with IBS; at least 2 weeks during PEP): 36%
Overall reduction of mean weekly abdominal pain by >=75%, responders (subjects with IBS; at least 2 weeks during PEP): 14%
Overall reduction of median weekly abdominal pain by >=25%, responders (subjects with IBS; at least 2 weeks during PEP): 63%
Overall reduction of median weekly abdominal pain by >=50%, responders (subjects with IBS; at least 2 weeks during PEP): 44%
Overall reduction of median weekly abdominal pain by >=75%, responders (subjects with IBS; at least 2 weeks during PEP): 23%
Abdominal pain reduction of 1 point in mean, responders (subjects with IBS; weekly mean vs baseline for at least 2 weeks during PEP): 52%
Abdominal pain reduction of 1 point in median, responders (subjects with IBS; weekly median vs baseline for at least 2 weeks during PEP): 63%
Rifaximin exposure in healthy subjects compared with subjects having hepatic encephalopathy [1]: significantly lower
Subjects with skin or subcutaneous tissue disorders ([2]; 550 mg rifaximin TID): 1.3%
Early discontinuation of study, primary reason Adverse Event/Serious Adverse Event ([2]; Rifaximin 550 mg TID, randomized subjects (316)): 0 n (%)
Adequate relief of IBS related symptoms (SGA) and IBS-related bloating (IBS-B) ([3]; 550 mg TID for 2 weeks): statistically significant relief
Adequate Relief of IBS symptom of Bloating: Failure [3, 6]: 171 (60.9%) N (%)
Adequate Relief of IBS symptom of Bloating: Success [3, 6]: 110 (39.1%) N (%)
Adequate Relief of IBS symptoms: Failure [3, 6]: 171 (60.9%) N (%)
Adequate Relief of IBS symptoms: Success [3, 6]: 110 (39.1%) N (%)
Adequate Relief of IBS symptom of Bloating: Failure [3, 7]: 16 (53.3%) N (%)
Adequate Relief of IBS symptom of Bloating: Success [3, 7]: 14 (46.7%) N (%)
Adequate Relief of IBS symptoms: Failure [3, 7]: 16 (53.3%) N (%)
Adequate Relief of IBS symptoms: Success [3, 7]: 14 (46.7%) N (%)
Adequate Relief of IBS symptom of Bloating: Failure [3, 8]: 128 (56.6%) N (%)
Adequate Relief of IBS symptom of Bloating: Success [3, 8]: 98 (43.4%) N (%)
Adequate Relief of IBS symptoms: Failure [3, 8]: 130 (57.5%) N (%)
Adequate Relief of IBS symptoms: Success [3, 8]: 96 (42.5%) N (%)
Adequate Relief of IBS symptom of Bloating: Failure [3, 9]: 59 (69.4%) N (%)
Adequate Relief of IBS symptom of Bloating: Success [3, 9]: 26 (30.6%) N (%)
Adequate Relief of IBS symptoms: Failure [3, 9]: 57 (67.1%) N (%)
Adequate Relief of IBS symptoms: Success [3, 9]: 28 (32.9%) N (%)
Adequate Relief of IBS symptom of Bloating: Failure [3, 10]: 19 (55.9%) N (%)
Adequate Relief of IBS symptom of Bloating: Success [3, 10]: 15 (44.1%) N (%)
Adequate Relief of IBS symptoms: Failure [3, 10]: 21 (61.8%) N (%)
Adequate Relief of IBS symptoms: Success [3, 10]: 13 (38.2%) N (%)
Adequate Relief of IBS symptom of Bloating: Failure [3, 11]: 168 (60.6%) N (%)
Adequate Relief of IBS symptom of Bloating: Success [3, 11]: 109 (39.4%) N (%)
Adequate Relief of IBS symptoms: Failure [3, 11]: 166 (59.9%) N (%)
Adequate Relief of IBS symptoms: Success [3, 11]: 111 (40.1%) N (%)
Adequate Relief of IBS symptom of Bloating Based on Daily Measures: Failure [3, 12]: 182 (57.8%) N (%)
Adequate Relief of IBS symptom of Bloating Based on Daily Measures: Success [3, 12]: 133 (42.2%) N (%)
Adequate Relief of IBS symptoms Based on Daily Measures: Failure [3, 12]: 200 (63.5%) N (%)
Adequate Relief of IBS symptoms Based on Daily Measures: Success [3, 12]: 115 (36.5%) N (%)
Adequate Relief of IBS symptom of Bloating Based on Daily Measures: Failure [3, 13]: 180 (57.9%) N (%)
Adequate Relief of IBS symptom of Bloating Based on Daily Measures: Success [3, 13]: 131 (42.1%) N (%)
Adequate Relief of IBS symptoms Based on Daily Measures: Failure [3, 13]: 196 (63.0%) N (%)
Adequate Relief of IBS symptoms Based on Daily Measures: Success [3, 13]: 115 (37.0%) N (%)
Adequate Relief of IBS symptom of Bloating: Failure [3, 14]: 187 (60.1%) N (%)
Adequate Relief of IBS symptom of Bloating: Success [3, 14]: 124 (39.9%) N (%)
Adequate Relief of IBS symptoms: Failure [3, 14]: 187 (60.1%) N (%)
Adequate Relief of IBS symptoms: Success [3, 14]: 124 (39.9%) N (%)
Adequate Relief of IBS symptom of Bloating: Failure [3, 15]: 17 (54.8%) N (%)
Adequate Relief of IBS symptom of Bloating: Success [3, 15]: 14 (45.2%) N (%)
Adequate Relief of IBS symptoms: Failure [3, 15]: 16 (51.6%) N (%)
Adequate Relief of IBS symptoms: Success [3, 15]: 15 (48.4%) N (%)
Adequate Relief of IBS symptom of Bloating: Failure [3, 16]: 170 (60.7%) N (%)
Adequate Relief of IBS symptom of Bloating: Success [3, 16]: 110 (39.3%) N (%)
Adequate Relief of IBS symptoms: Failure [3, 16]: 171 (61.1%) N (%)
Adequate Relief of IBS symptoms: Success [3, 16]: 109 (38.9%) N (%)
Adequate Relief of IBS symptom of Bloating: Failure [3, 17]: 190 (60.3%) n (%)
Adequate Relief of IBS symptom of Bloating: Success [3, 17]: 125 (39.7%) n (%)
Adequate Relief of IBS symptoms: Failure [3, 17]: 190 (60.3%) n (%)
Adequate Relief of IBS symptoms: Success [3, 17]: 125 (39.7%) n (%)
Daily abdominal pain <2, responders ([3]; Study 2, <2 for at least 50% of days in a week for at least 2 weeks during PEP): 39%
Global IBS symptoms, responders [3, 18]: 41%
IBS symptom of Bloating, responders [3, 18]: 41%
Abdominal Pain reduction of 2 point in mean, responders [3, 19]: 25%
Abdominal Pain reduction of 2 point in median, responders [3, 19]: 41%
Abdominal Pain reduction of 3 point in mean, responders [3, 19]: 6% vs 7%
Abdominal Pain reduction of 3 point in median, responders [3, 19]: 21%
Overall reduction of mean weekly abdominal pain by >=25%, responders [3, 19]: 58%
Overall reduction of mean weekly abdominal pain by >=50%, responders [3, 19]: 35%
Overall reduction of mean weekly abdominal pain by >=75%, responders [3, 19]: 14%
Overall reduction of median weekly abdominal pain by >=25%, responders [3, 19]: 62%
Overall reduction of median weekly abdominal pain by >=50%, responders [3, 19]: 44%
Overall reduction of median weekly abdominal pain by >=75%, responders [3, 19]: 20%
Abdominal pain reduction of 1 point in mean, responders ([3]; Study 2, weekly mean vs baseline for at least 2 weeks during PEP): 52%
Abdominal pain reduction of 1 point in median, responders ([3]; Study 2, weekly median vs baseline for at least 2 weeks during PEP): 62%
% with decrease in SF (stool frequency) ([3]; Week 1, Rifaximin 550 mg TID): 14.4%
% with decrease in SF (stool frequency) ([3]; Week 2, Rifaximin 550 mg TID): 20.6%
% with decrease in SF (stool frequency) ([3]; Week 3, Rifaximin 550 mg TID): 22.2%
% with decrease in SF (stool frequency) ([3]; Week 4, Rifaximin 550 mg TID): 21.6%
% with decrease in SF (stool frequency) ([3]; Week 5, Rifaximin 550 mg TID): 25.7%
% with decrease in SF (stool frequency) ([3]; Week 6, Rifaximin 550 mg TID): 22.9%
% with decrease in SF (stool frequency) ([3]; Week 7, Rifaximin 550 mg TID): 23.8%
% with decrease in SF (stool frequency) ([3]; Week 8, Rifaximin 550 mg TID): 24.4%
% with decrease in SF (stool frequency) ([3]; Week 9, Rifaximin 550 mg TID): 25.4%
% with decrease in SF (stool frequency) ([3]; Week 10, Rifaximin 550 mg TID): 26.7%
% with decrease in SF (stool frequency) ([3]; Week 11, Rifaximin 550 mg TID): 25.4%
% with decrease in SF (stool frequency) ([3]; Week 12, Rifaximin 550 mg TID): 27.0%
Rifaximin exposure, fold lower than neomycin exposure [4]: more than 66 fold
Rifaximin exposure, fold lower than rifampin exposure [4]: more than 520 fold
